Series [1] can be described thus: Half-life in human liver microsomes. It counts as in vitro ADME. The note with it: human, liver microsomes, NADPH, 37° C., read-out: G: half-life human liver microsomes. The method, then:
(§1) Half-life Human Microsomes: Compounds were evaluated for stability in human liver microsomes. A 10 mM stock solution of the compound being evaluated was prepared in DMSO and diluted with water:acetonitrile (1:1) to a concentration of 1 mM. A working concentration of 100 μM was prepared by further dilution with water:acetonitrile (1:1). To make the preincubation mixture, 2.5 μL of the diluted compound was combined with 75 μL of human liver microsomes at 3.33 mg/mL, and 85 μL of 100 mM potassium phosphate buffer, and this mixture was pre-incubated for 10 min at 37° C. To make the 60 minute mixture without cofactor, 32.5 μL of the preincubation mixture was combined with 17.5 μL of 100 mM potassium phosphate buffer and incubated for 60 min at 37° C. To make the 0 min sample with cofactor (NADPH), 16.25 μL of the preincubation mixture was combined with 200 μL of acetonitrile containing internal standard and 8.75 μL of cofactor (NADPH). To make the incubation mixture, 62 μL of cofactor (2.85 mM) was combined with the remaining incubation mixture, and incubated for 60 min at 37° C. To prepare the sample mixture to be evaluated, 25 μL incubation mixture was combined with 200 μL of acetonitrile containing internal standard and vortexed for 5 min at 1200 rpm, then centrifuged for 10 min at 4000 rpm. The supernatant was diluted 2 fold with water and injected on LC-MS/MS. The sample mixture was evaluated by LC-MS/MS using 10 mM ammonium acetate with 0.1% FA as the aqueous mobile phase, and methanol as the organic mobile phase.

Series [2] can be described thus: Kinetic solubility. It counts as physicochemical. The note with it: aqueous buffer, kinetic from dmso stock, pH 7.4 buffer, room temperature, 1.0% DMSO, read-out: I: kinetic solubility class. How it is done: Kinetic Solubility Procedure: A 10 mM stock solution of a compound was prepared in DMSO, then 4 μL of the stock was added to a deep well plate containing 396 μL of pH 7.4 buffer. The sample plate was vortexed at 800 rpm for 24 h on thermomixer at room temperature. The plate was sealed well during the incubation process. The DMSO content in the sample was 1.0%. The concentration of the evaluated compound in the final incubation was 100 μM. At the end of the incubation period, the sample plate was centrifuged at 4000 rpm for 10 min and analyzed in LC-UV against a calibration curve (CC). Values <10 μg/mL=Low; 10 to 60 μg/mL=Medium; >60 μg/mL=High.

The nature of series [3]: Half-life in mouse liver microsomes. Format: in vitro ADME. The note with it: mouse, liver microsomes, read-out: H: half-life of mouse liver microsomes. The method, then:
as §1
Half-life Mouse Microsomes: Compounds were evaluated in mouse liver microsomes following a similar procedure as described above for human liver microsomes. A similar procedure could be used to evaluate compounds in rat liver microsomes.

Each structure is given as a SMILES string. ≈ marks a conversion by molar mass, not a printed value.

Consider `CC(C)(C)c1cc(-c2cncc(-c3ccc(C(=O)N4CCC(O)CC4)cc3Cl)c2F)ccn1`, for which the half-life at 1 µM in series [1] stood at 9.52 min; in series [3], 39.2 min. In addition, the solubility (kinetic) at 24 h in series [2] lay within 10 to 60 µg/mL (≈ 21.4 to 128 µM).
For `CC(C)(C)c1cc(-c2cncc(-c3ccc(NC(=O)OCCN4CCCC4)cc3Cl)c2)ccn1`, in that order: 53.2 min, 14.4 min and 10 to 60 µg/mL (≈ 20.9 to 125 µM).
With `COc1ncc(-c2ccc(C(=O)N3CCC(O)CC3)cc2Cl)cc1-c1ccnc(C(C)(C)C)c1`, the half-life at 1 µM in series [1] was determined as 16.1 min; in series [3] it was 38.5 min. Further, the solubility (kinetic) at 24 h in series [2] lay within 10 to 60 µg/mL (≈ 20.8 to 125 µM).
Taken in the same sequence, the figures for `Cc1ncc(-c2ccc(C(=O)N3CCC(O)CC3)cc2Cl)cc1-c1ccnc(C(C)(C)C)c1` were 7.8 min, 41.7 min and 10 to 60 µg/mL (≈ 21.6 to 129 µM).
For `O=C(c1ccc(-c2cncc(-c3ccnc(C4CC4)c3)c2)c(Cl)c1)N1CCC(F)C(O)C1` (stereo not drawn), in that order: 20.5 min, 68.3 min and below 10 µg/mL.
For `O=C(Nc1ccc(-c2cncc(-c3ccnc4c3OCCO4)c2)c(Cl)c1)OC1CC1`, in that order: 9.94 min, 16.4 min and below 10 µg/mL.
With `O=C(c1ccc(-c2cncc(-c3ccnc(C4CC4)c3)c2)c(Cl)c1)N1CCC(F)CC1`, the half-life at 1 µM in series [1] stood at 7.28 min; in series [3], 12.4 min. Further, the solubility (kinetic) at 24 h in series [2] was in the range of 10 to 60 µg/mL (≈ 22.9 to 138 µM).
For `O=C(c1ccc(-c2cncc(-c3ccnc(C4CC4)c3)c2)c(Cl)c1)N1CCC[C@H]1CO`, in that order: 16.2 min, 66.7 min and 10 to 60 µg/mL (≈ 23 to 138 µM).
For `O=C(c1ccc(-c2cncc(-c3ccnc(C4CC4)c3)c2)c(Cl)c1)N1CC[C@H](O)C1`, in that order: 39.2 min, 87.2 min and 10 to 60 µg/mL (≈ 23.8 to 143 µM).
Taken in the same sequence, the figures for `O=C(c1ccc(-c2cncc(-c3ccnc(C4CC4)c3)c2)c(Cl)c1)N1CC2CCC(C1)C2O` (stereo not drawn) were 21.3 min, 42.4 min and 10 to 60 µg/mL (≈ 21.7 to 130 µM).
For `CC(C)(C)c1cc(-c2cncc(-c3ccc(C(=O)N4CCC(O)C(O)CC4)cc3Cl)c2)ccn1` (stereo not drawn), the half-life at 1 µM turned out to be 27.7 min in series [1] and 120 min in series [3]. Moreover, the solubility (kinetic) at 24 h in series [2] is 10 to 60 µg/mL (≈ 20.8 to 125 µM).
`CS(=O)(=O)Nc1ccc(-c2cncc(-c3ccnc4c3OCCO4)c2)c(Cl)c1`: the values for the half-life at 1 µM in series [1] and in series [3] were 37.4 min and 104 min, respectively. In addition, in series [2], the solubility (kinetic) at 24 h was below 10 µg/mL.
Regarding `CC(C)OC(=O)Nc1ccc(-c2cncc(-c3ccnc(C(C)(C)O)c3)c2)c(Cl)c1`, the half-life at 1 µM in series [1] and in series [3] was 120 min each time. Besides, the solubility (kinetic) at 24 h in series [2] was below 10 µg/mL.
For `CC(C)(O)c1cc(-c2cncc(-c3ccc(NS(C)(=O)=O)cc3Cl)c2)ccn1`, the results for the half-life at 1 µM in series [1] and in series [3] were 116 min and 120 min, respectively. For the same compound, in series [2], the solubility (kinetic) at 24 h is below 10 µg/mL.
Taken in the same sequence, the figures for `CC(C)OC(=O)Nc1ccc(-c2cncc(-c3ccnc(C4(F)CCC4)c3)c2)c(Cl)c1` were 55.9 min, 97.9 min and below 10 µg/mL.
For `CC(C)(CF)c1cc(-c2cncc(-c3ccc(C(=O)N4CCC(O)CC4)cc3Cl)c2)ccn1`, in that order: 41.3 min, 77.5 min and 10 to 60 µg/mL (≈ 21.4 to 128 µM).
For `CC(C)(C)c1cc(-c2cncc(-c3ccc(C(=O)N4CCC(=O)C(F)C4)cc3Cl)c2)ccn1` (stereo not drawn), in that order: 11.2 min, 1.94 min and 10 to 60 µg/mL (≈ 21.5 to 129 µM).
Regarding `CC(C)(C)c1cc(-c2cncc(-c3ccc(C(=O)N4CCC[C@@H]4C(C)(C)O)cc3Cl)c2)ccn1`, the half-life at 1 µM came out at 14 min in series [1] and 64.3 min in series [3]. Moreover, the kinetic solubility at 24 h in series [2] was in the range of 10 to 60 µg/mL (≈ 20.9 to 126 µM).
Taken in the same sequence, the figures for `CC(C)(C)c1cc(-c2cncc(-c3ccc(C(=O)N4CCC[C@H]4C(C)(C)O)cc3Cl)c2)ccn1` were 16.8 min, 27.4 min and 10 to 60 µg/mL (≈ 20.9 to 126 µM).
In the case of `CC(C)(C)c1cc(-c2cncc(-c3ccc(C(=O)N4CCC(O)C(F)C4)cc3Cl)c2)ccn1` (stereo not drawn), the half-life at 1 µM in series [1] came out at 120 min; in series [3], 98.5 min. Also, the kinetic solubility at 24 h in series [2] fell in the range of 10 to 60 µg/mL (≈ 21.4 to 128 µM).
With `CC1CC(O)CC(C)N1C(=O)c1ccc(-c2cncc(-c3ccnc(C(C)(C)C)c3)c2)c(Cl)c1` (stereo not drawn), the half-life at 1 µM in series [1] is 6.33 min; in series [3] it was 47.8 min. In addition, the kinetic solubility at 24 h in series [2] lay in the range of 10 to 60 µg/mL (≈ 20.9 to 126 µM).
Take `CC(C)(C)c1cc(-c2cncc(-c3ccc(C(=O)N4CCC(O)(O)C(F)(F)C4)cc3Cl)c2)ccn1`: the results for the half-life at 1 µM in series [1] and in series [3] were 43.7 min and 32.5 min, respectively. Moreover, in series [2], the solubility (kinetic) at 24 h lay in the range of 10 to 60 µg/mL (≈ 19.9 to 120 µM).
For `O=C(c1ccc(-c2cncc(-c3ccnc(C4(O)CCC4)c3)c2)c(Cl)c1)N1CCC(O)CC1`, in that order: 76.7 min, 120 min and 10 to 60 µg/mL (≈ 21.6 to 129 µM).
As for `CC(C)(C)c1cc(-c2cncc(-c3ccc(C(=O)N(CCCO)CCCO)cc3Cl)c2)ccn1`, the half-life at 1 µM was found to be 9.51 min in series [1] and 40.4 min in series [3]. Also, the solubility (kinetic) at 24 h in series [2] was 10 to 60 µg/mL (≈ 20.7 to 124 µM).
For `O=C(c1ccc(-c2cncc(-c3ccnc(C4(F)CCC4)c3)c2)c(Cl)c1)N1CCC(O)CC1`, in that order: 32.3 min, 54.4 min and 10 to 60 µg/mL (≈ 21.5 to 129 µM).
For the compound `CC(C)(C)c1cc(-c2cncc(-c3ccc(C(=O)N4CCC(O)C(F)(F)C4)cc3Cl)c2)ccn1` (stereo not drawn), the half-life at 1 µM in series [1] came to 28.1 min; in series [3] it was 88.6 min. Also, the kinetic solubility at 24 h in series [2] was 10 to 60 µg/mL (≈ 20.6 to 123 µM).
For `CC(C)(C)c1cc(-c2cncc(-c3ccc(C(=O)N4CCC(F)C(O)C4)cc3Cl)c2)ccn1` (stereo not drawn), in that order: 12.2 min, 21.7 min and 10 to 60 µg/mL (≈ 21.4 to 128 µM).
As to `CC(C)(C)c1cc(-c2cncc(-c3ccc(C(=O)N4CCC4C(C)(C)O)cc3Cl)c2)ccn1` (stereo not drawn), the half-life at 1 µM in series [1] worked out at 59 min; in series [3] it was 38.3 min. For the same compound, the solubility (kinetic) at 24 h in series [2] was 10 to 60 µg/mL (≈ 21.6 to 129 µM).
Take `CC(C)(C)c1cc(-c2cncc(-c3ccc(C(=O)N4CC(C(C)(C)O)C4)cc3Cl)c2)ccn1`: the half-life at 1 µM in series [1] is 7.35 min; in series [3], 12.4 min. The kinetic solubility at 24 h in series [2] was 10 to 60 µg/mL (≈ 21.6 to 129 µM).
Taken in the same sequence, the figures for `CS(=O)(=O)Nc1ccc(-c2cncc(-c3ccnc(C4CC4)c3)c2)c(Cl)c1` were 112 min, 86.7 min and below 10 µg/mL.
For `CC(C)OC(=O)Nc1ccc(-c2cncc(-c3ccnc(C4CC4)c3)c2)c(Cl)c1`, in that order: 120 min, 81.1 min and below 10 µg/mL.
Taken in the same sequence, the figures for `CC(C)OC(=O)N(C)c1ccc(-c2cncc(-c3ccnc(C(C)(C)C)c3)c2)c(Cl)c1` were 63.6 min, 105 min and below 10 µg/mL.
With `CC(C)(C)c1cc(-c2cncc(-c3ccc(C(=O)N4CC5(CC(O)C5)C4)cc3Cl)c2)ccn1`, the figures for the half-life at 1 µM in series [1] and in series [3] were 1.79 min and 120 min, respectively. In series [2], the kinetic solubility at 24 h lay in the range of 10 to 60 µg/mL (≈ 21.6 to 130 µM).
For `CC(C)(C)c1cc(-c2cncc(-c3ccc(C(=O)N4CCC[C@@H]4CO)cc3Cl)c2)ccn1`, in that order: 10.1 min, 32 min and 10 to 60 µg/mL (≈ 22.2 to 133 µM).
Take `CC(C)(C)c1cc(-c2cncc(-c3ccc(C(=O)N4CCC[C@H]4CO)cc3Cl)c2)ccn1`: the figures for the half-life at 1 µM in series [1] and in series [3] were 5.52 min and 28.6 min, respectively. Besides, the solubility (kinetic) at 24 h in series [2] lay within 10 to 60 µg/mL (≈ 22.2 to 133 µM).
Consider `CC1(O)CCN(C(=O)c2ccc(-c3cncc(-c4ccnc(C(C)(C)C)c4)c3)c(Cl)c2)C1` (stereo not drawn), for which the half-life at 1 µM worked out at 12.9 min in series [1] and 28 min in series [3]. Besides, the solubility (kinetic) at 24 h in series [2] is 10 to 60 µg/mL (≈ 22.2 to 133 µM).
Taken in the same sequence, the figures for `CC(C)(C)c1cc(-c2cncc(-c3ccc(C(=O)N4CC[C@H](O)C4)cc3Cl)c2)ccn1` were 14.4 min, 38.7 min and 10 to 60 µg/mL (≈ 22.9 to 138 µM).
